Assay [1] has as its target Botulinum neurotoxin type A (Clostridium botulinum (strain Hall / ATCC 3502 / NCTC 13319 / Type A), UniProt P0DPI1). The assay can be described thus: High-throughput multiplex microsphere dose response for inhibitors of toxin protease, specifically Botulinum neurotoxin light chain A protease, compounds from Cherry Pick 02. The note with it: read-out: EC50_MICROM. Type of assay: functional.

Assay [2] relates to H4. Briefly: Luminescence Cell-Based Dose Response HTS to Identify Activators of 5'UTR Stem-Loop Driven Prion Protein mRNA Translation in H4 Neuroglioblastoma Cells. [Related pubchem assays: 1829 (Project Summary), 1814 (Primary HTS)]. It is filed as functional. The conditions noted are these: Homo sapiens.
Assay [3] in a line: Luminescence Cell-Based Dose Response HTS to Identify Activators of Luciferase Translation or Activity in H4 […] Cells. [Related pubchem assays: 1829 (Project Summary), 1814 (Primary HTS)]. It is filed as functional.
Assay [4] has as its target Multidrug resistance protein CDR1 (Candida albicans, UniProt P43071). The assay can be described thus: CaCDR1 efflux pump inhibitors in yeast, dose response, S. cerevisiae AD1-8u, singleplex, Cherry Pick1 hits (AID 588606). Type of assay: functional.
Assay [5] deals with Latent membrane protein 1 (Human herpesvirus 4 (strain B95-8), UniProt P03230). The assay can be described thus: TES1-eGFP NF-kB reporter inhibition versus Tet-On dsRED, dose response, selectivity assay for LMP1 NF-kB inhibitor project, imaging, HEK293T, dual-color eGFP/dsRED, cherry-picks (AID 588398). Type of assay: functional, cell-based.
Sequence of Latent membrane protein 1 (P03230 whole entry, the tested form may be a part): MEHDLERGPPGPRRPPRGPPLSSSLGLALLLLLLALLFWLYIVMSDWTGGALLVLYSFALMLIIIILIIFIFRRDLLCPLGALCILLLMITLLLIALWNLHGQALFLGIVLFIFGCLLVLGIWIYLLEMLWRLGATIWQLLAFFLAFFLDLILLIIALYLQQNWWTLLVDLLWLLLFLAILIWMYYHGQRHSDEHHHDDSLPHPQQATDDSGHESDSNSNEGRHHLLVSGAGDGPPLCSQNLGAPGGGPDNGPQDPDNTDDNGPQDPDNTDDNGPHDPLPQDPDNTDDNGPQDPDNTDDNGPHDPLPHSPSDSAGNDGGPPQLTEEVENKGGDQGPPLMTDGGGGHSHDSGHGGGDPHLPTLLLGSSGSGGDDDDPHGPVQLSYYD
For assay [6], the target named is Photoreceptor-specific nuclear receptor (Homo sapiens, UniProt Q9Y5X4). It is filed as functional, cell-based.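 Note: CHO-S cells with Gal4-NCOR and VP16-NR2E3 two-hybrid luciferase reporter.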
Sequence of Photoreceptor-specific nuclear receptor (Q9Y5X4 whole entry, the tested form may be a part): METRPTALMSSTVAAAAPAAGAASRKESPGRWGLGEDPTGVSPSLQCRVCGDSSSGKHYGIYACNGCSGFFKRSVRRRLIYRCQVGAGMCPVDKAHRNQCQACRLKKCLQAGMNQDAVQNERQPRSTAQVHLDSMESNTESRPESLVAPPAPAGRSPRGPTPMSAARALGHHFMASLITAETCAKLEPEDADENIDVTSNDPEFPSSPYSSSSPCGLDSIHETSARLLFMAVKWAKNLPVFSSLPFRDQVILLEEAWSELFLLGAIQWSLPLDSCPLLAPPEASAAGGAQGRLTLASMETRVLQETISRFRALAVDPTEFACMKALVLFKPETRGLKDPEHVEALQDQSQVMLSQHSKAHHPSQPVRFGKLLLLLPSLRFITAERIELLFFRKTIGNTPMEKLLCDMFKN
Assay [7] relates to HEK293. Briefly: inhibitors of LMP1-driven NF-kB reporter, dose response, cell-based, HEK293, luciferase, cherry-pick (AID 588343). Type of assay: functional. The note with it: Homo sapiens.
The subject of assay [8] is INS1. The assay can be described thus: protection of INS-1E cells from cytokine death, dose response, ATP luminescence, dry powder (AID 488844). Type of assay: functional, cell-based. The note with it: Rattus norvegicus.
Assay [9] relates to INS1. Briefly: inhibitors of cytokine-induced nitrite release, dose response, cell-based, Griess absorbance, INS-1E, dry powder, set 2 (AID 488868). The conditions noted are these: Rattus norvegicus. It is filed as functional.
Assay [10] has as its system INS1. The assay can be described thus: protection from cytokine-induced mitochondrial depolarization, dose response, cell-based, INS-1E, JC-1 fluorescence ratio, dry powder (AID 488931). It is filed as functional. The conditions noted are these: Rattus norvegicus.
The nature of assay [11]: inhibitors of cytokine-induced nitrite release, dose response, cell-based, Griess absorbance, INS-1E, dry powder, set 3 (AID 488870). It is filed as functional. The conditions noted are these: Rattus norvegicus.
For assay [12], the target named is Casein kinase I isoform alpha (Homo sapiens, UniProt P48729). Type of assay: functional.
Sequence of Casein kinase I isoform alpha (P48729 whole entry, canonical isoform): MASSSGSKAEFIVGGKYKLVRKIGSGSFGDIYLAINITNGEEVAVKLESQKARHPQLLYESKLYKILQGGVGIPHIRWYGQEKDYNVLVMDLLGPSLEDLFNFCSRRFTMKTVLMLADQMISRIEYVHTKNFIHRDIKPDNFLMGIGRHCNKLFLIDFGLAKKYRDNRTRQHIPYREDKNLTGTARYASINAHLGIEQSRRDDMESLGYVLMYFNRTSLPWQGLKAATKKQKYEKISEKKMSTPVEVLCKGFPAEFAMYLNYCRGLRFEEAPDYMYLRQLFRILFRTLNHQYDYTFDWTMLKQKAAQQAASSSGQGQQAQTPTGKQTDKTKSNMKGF
The target of assay [13] is Focal adhesion kinase 1 (Homo sapiens, UniProt Q05397). It is filed as functional.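 Note: measured as one member of a kinome panel.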
Sequence of Focal adhesion kinase 1 (Q05397 whole entry): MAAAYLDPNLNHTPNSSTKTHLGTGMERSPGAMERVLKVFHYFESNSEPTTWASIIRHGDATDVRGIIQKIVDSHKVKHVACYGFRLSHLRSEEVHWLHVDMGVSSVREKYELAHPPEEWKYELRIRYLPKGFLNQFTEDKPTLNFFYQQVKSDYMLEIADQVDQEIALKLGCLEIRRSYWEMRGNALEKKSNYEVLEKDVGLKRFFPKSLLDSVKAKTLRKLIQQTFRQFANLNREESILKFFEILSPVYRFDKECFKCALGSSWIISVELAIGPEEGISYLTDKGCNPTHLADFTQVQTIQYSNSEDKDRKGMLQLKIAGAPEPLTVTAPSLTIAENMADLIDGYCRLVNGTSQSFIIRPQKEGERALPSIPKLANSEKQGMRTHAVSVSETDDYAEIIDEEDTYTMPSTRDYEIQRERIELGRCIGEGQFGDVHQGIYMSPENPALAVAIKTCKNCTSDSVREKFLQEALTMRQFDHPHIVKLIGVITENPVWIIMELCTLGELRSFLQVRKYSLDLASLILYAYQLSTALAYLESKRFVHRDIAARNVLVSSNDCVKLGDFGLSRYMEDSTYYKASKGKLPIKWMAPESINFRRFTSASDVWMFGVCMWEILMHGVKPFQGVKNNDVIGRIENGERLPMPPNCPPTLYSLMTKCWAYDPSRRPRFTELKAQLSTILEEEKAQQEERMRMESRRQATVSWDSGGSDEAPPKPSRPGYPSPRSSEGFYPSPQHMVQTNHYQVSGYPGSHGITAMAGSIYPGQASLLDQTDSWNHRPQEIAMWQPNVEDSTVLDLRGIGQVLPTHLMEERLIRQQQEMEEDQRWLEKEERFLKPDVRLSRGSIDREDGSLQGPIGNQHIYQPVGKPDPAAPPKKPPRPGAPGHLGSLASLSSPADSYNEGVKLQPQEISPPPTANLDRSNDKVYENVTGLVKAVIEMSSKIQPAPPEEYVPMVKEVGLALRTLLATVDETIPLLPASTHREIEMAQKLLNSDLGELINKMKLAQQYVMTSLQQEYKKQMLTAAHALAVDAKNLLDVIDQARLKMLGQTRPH
Assay [14] has as its target Dual specificity protein kinase CLK4 (Homo sapiens, UniProt Q9HAZ1). Type of assay: functional.

Active and inactive are the calls of the source.

Sequence of Multidrug resistance protein CDR1 (P43071 whole entry, looked up): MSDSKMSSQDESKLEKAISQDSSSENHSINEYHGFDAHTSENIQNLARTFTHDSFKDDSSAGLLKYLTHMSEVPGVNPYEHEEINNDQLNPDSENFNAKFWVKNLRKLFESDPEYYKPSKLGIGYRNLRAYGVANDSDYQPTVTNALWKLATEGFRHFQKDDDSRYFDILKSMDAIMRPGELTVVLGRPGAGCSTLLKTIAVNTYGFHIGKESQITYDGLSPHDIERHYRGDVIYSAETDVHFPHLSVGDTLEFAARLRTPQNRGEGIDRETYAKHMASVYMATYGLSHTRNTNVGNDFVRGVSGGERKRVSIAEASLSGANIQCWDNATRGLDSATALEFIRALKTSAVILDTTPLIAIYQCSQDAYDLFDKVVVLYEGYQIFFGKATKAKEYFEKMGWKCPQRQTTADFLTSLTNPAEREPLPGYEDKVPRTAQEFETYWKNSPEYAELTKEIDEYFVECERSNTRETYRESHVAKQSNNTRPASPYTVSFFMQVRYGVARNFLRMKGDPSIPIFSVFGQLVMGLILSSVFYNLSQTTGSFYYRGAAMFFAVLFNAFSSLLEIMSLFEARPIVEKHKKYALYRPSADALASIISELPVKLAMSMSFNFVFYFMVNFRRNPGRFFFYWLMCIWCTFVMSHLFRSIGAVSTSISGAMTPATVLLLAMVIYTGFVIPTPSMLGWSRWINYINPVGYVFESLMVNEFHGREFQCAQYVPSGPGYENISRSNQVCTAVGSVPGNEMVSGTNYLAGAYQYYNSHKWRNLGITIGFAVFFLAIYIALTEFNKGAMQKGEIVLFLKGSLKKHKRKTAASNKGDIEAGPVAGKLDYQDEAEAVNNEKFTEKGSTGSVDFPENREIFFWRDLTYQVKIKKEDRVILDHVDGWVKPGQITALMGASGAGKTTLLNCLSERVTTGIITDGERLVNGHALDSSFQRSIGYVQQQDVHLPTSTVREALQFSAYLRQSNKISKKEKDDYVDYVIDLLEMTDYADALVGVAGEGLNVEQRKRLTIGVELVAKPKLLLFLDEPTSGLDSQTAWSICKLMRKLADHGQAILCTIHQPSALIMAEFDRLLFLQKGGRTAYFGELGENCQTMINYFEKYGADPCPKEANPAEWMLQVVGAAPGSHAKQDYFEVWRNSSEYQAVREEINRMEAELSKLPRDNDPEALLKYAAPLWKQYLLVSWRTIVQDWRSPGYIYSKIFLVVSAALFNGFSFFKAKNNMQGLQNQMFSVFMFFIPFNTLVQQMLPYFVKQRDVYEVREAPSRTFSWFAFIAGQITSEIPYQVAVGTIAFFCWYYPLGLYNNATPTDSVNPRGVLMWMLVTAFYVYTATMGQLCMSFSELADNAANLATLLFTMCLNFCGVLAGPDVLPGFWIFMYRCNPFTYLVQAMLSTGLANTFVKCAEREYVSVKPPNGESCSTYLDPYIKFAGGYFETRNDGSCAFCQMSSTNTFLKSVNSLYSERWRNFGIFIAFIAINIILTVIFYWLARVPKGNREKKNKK
Sequence of Dual specificity protein kinase CLK4 (Q9HAZ1 whole entry): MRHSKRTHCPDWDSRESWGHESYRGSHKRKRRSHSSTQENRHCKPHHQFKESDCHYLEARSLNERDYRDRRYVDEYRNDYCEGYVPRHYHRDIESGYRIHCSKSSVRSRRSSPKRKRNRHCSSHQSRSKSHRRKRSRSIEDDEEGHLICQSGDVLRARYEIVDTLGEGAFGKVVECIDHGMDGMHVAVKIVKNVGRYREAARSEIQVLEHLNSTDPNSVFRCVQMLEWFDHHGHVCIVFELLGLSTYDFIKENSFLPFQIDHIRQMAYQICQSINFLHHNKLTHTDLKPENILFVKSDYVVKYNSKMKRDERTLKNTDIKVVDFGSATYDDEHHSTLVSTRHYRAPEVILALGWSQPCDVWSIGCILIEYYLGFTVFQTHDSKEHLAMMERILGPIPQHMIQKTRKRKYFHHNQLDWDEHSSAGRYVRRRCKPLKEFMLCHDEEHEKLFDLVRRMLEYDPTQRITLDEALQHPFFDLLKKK
Sequence of Botulinum neurotoxin type A (P0DPI1 2-448 limits assumed): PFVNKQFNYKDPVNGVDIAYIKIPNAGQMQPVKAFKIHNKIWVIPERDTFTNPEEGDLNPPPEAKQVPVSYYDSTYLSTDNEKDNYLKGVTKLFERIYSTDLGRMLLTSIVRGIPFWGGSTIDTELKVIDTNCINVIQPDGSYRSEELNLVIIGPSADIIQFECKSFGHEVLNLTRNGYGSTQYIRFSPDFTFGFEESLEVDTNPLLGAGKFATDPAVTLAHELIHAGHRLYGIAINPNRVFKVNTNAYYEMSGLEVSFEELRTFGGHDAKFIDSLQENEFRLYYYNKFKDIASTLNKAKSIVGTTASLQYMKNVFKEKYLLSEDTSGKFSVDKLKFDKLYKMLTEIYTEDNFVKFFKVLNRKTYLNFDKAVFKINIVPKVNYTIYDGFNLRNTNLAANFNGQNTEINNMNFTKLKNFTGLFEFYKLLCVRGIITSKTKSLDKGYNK

`Cc1onc(-c2ccccc2Cl)c1C(=O)NCc1ccc2c(c1)cc(C)n2C`: the EC50 in assay [1] was 4.2 µM (active).

In the case of `O=C(/C=C/c1ccccc1Cl)NCCc1ccccc1`, the figures for the EC50 in [2], in assay [3] and in [4] were > 120 µM (not active), 4.27 µM (active) and 0.514 µM (active), respectively.

For `S=C(NN=Cc1ccccn1)Nc1ccccn1`, the AC50 (commonly the midpoint of the concentration-response curve, whichever way the signal moves) in [5] is 10.7 µM (active); in [7], 21.5 µM (active). Also, the IC50 – broadly, the concentration needed to halve the response being measured – in assay [6] is 7.61 µM (active).

With `COc1ccc(S(=O)(=O)N(C)C[C@@H]2Oc3c(NC(=O)Nc4cccc5ccccc45)cccc3C(=O)N([C@@H](C)CO)C[C@H]2C)cc1F`, the AC50 in assay [8] was 23.2 µM (active); in assay [9], 26.7 µM (active); in assay [10], > 195 µM (inactive); in [11], 60.8 µM (active).

Consider `Cc1cc(C(C)Nc2ccccc2)c2nc(N3CCOCC3)cc(=O)n2c1` (centres undefined), for which the values for the Ki in assay [12], in assay [13] and in assay [14] were 2 µM (active), 2.51 µM (active) and 2.51 µM (active), respectively.

The values are drawn from ChEMBL document CHEMBL1201862, “PubChem BioAssay data set” (2004).
